{
  "source": "paper PMC5786306",
  "about": "“An AKAP-Lbc-RhoA interaction inhibitor promotes the translocation of aquaporin-2 to the plasma membrane of renal collecting duct principal cells” (PLoS ONE, 2018)",
  "test_system": "viability of cells",
  "test": "CellTiter-Glo luminescent cell viability assay (ATP)",
  "assay_type": "cell-based",
  "details": "up to 100 μM, 1 and 24 h",
  "protocol": "(A) Full length AKAP-Lbc (AKAP13) and the indicated GEFs were transiently expressed in HEK293 cells. […] (B) Scaff10 inhibits Gα12- but not Gαq-mediated RhoA activation. The indicated Gα12 and Gαq-mutants were transiently co-expressed with AKAP-Lbc and p63RhoGEF in HEK293 cells as indicated. The cells were left untreated or incubated with Scaff10 (50 μM). The fraction of active RhoA was determined using Rhotekin pulldown assays. Shown is one representative out of three experiments. All GEF constructs were in pCMV3a and Myc-tagged (30 ng per transfection). Expression of AKAP-Lbc, LARG and PDZ-RhoGEF is shown in Fig 7 of the main manuscript. […] Lower panel: Corresponding values of fluorescence to upper panel. […] Lower panel: Corresponding values of fluorescence to upper panel. (B) F norm = normalised fluorescence (fluoresence steady state/fluorescence initial state) indicated in ‰. […] The viability of the indicated cells was determined using a CellTiter-Glo®Luminescent Cell Viability Assay (Promega, Wisconsin, USA) according to the manufacturer's instructions. The assay is based on the quantification of ATP as an indicator of metabolically active cells. […] Viability was assessed after 1 and 24 h incubation with Scaff10-8 in the indicated concentrations. An equal volume of CellTiter-Glo Reagent was added, plates were shaken and luminescence monitored over time with the plates held at 22°C. […]",
  "data": [
    {"smiles": "COc1ccc(-c2coc3cc4oc(=O)c(CCC(=O)O)c(C)c4cc23)cc1", "note": "[Scaff10-8, 3-[3-(4-Methoxyphenyl)-5-methyl-7-oxo-furo[3,2-g]chromen-6-yl] propanoic acid]", "values": [
      {"measurement": "viability of cells (ATP quantitation)", "result": "did not affect the viability"}
    ]}
  ]
}
